What is called IC50 is the concentration needed to halve the response being measured.

For four compounds, IC50 results are on record in ChEMBL document CHEMBL1149987, “Synthesis and biological evaluation of new arachidonic acid analogs” (Bioorg Med Chem Lett, 1994).

In test [1] the target is T1, Polyunsaturated fatty acid 5-lipoxygenase (Homo sapiens, UniProt P09917).
T1 sequence (P09917 whole entry): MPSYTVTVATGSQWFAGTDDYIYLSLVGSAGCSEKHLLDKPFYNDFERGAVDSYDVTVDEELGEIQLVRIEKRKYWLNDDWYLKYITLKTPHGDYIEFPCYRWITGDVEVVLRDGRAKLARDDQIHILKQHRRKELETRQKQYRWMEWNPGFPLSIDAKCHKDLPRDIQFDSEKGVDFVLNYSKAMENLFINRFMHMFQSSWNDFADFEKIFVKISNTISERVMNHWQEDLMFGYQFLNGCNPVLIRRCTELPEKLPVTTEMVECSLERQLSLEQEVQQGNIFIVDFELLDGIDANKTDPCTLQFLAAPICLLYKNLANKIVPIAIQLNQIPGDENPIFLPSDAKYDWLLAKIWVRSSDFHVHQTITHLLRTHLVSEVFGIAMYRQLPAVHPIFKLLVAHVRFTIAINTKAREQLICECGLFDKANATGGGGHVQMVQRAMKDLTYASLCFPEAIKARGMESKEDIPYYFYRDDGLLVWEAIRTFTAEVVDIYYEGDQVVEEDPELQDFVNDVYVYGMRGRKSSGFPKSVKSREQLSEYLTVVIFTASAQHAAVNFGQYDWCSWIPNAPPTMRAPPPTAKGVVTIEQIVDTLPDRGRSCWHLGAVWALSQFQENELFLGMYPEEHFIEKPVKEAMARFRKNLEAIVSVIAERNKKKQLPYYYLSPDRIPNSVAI
In words: Compound was tested for the inhibition of 5-lipoxygenase of human PMN stimulated by calcium ionophore A-23187 for the formation of leukotriene B4 (LTB4).

The target in test [2] is T1, Polyunsaturated fatty acid 5-lipoxygenase. In words: Compound was tested for the inhibition of 5-lipoxygenase of human PMN stimulated by calcium ionophore A-23187 for the formation of 5-HETE.

As to `CCCCC/C=C\C/C=C\[C@@H]1CC(C)=C(C)C[C@H]1/C=C\C/C=C\CCCC(=O)O`, the half-maximal inhibitory concentration (IC50) in test [1] stood at 1600 nM; in test [2] it was 1000 nM.
Take `CCCCC/C=C\C/C=C\[C@@H]1C[C@H]1/C=C\C/C=C\CCCC(=O)O` (stereo in doubt; (-)-7a): the IC50 in test [1] is 2400 nM; in test [2], 1700 nM.
The corresponding values for `CCCCC/C=C\C/C=C\[C@H]1CC(C)=C(C)C[C@H]1/C=C\C/C=C\CCCC(=O)O` are 1900 nM and 1100 nM.
For `CCCCC/C=C\C/C=C\[C@@H]1C[C@H]1/C=C\C/C=C\CCCC(=O)O` (stereo in doubt; (+)-7a), the IC50 in test [1] was 2800 nM; in test [2], 2900 nM.
